From the NIST ThermoML archive (doi:10.1016/j.jct.2012.09.012)
± gives the expanded uncertainty stated by the source.

Legend:
[1] = molar heat capacity at constant pressure; xn = mol fraction of the nth substance listed; conditions: 101 kPa, Liquid, Small sample (50 mg) DSC, x2 = 0
[2] = xn = mol fraction of the nth substance listed; conditions: Liquid, Vibrating tube method, x2 = 0
[3] = Liquid, Vibrating tube method
[4] = molar heat capacity at constant pressure; conditions: 101 kPa, Liquid, Small sample (50 mg) DSC

C=C1CCC2CC1C2(C)C (stereo not drawn) [β-pinene] + CC1=CC[C@H]2C[C@@H]1C2(C)C
[1]
Conditions	molar heat capacity at constant pressure [J/K/mol]
313.16 K	249.31 ± 8.2
318.16 K	252.03 ± 8.2
323.16 K	254.76 ± 8.2
328.22 K	257.48 ± 8.2
333.22 K	260.21 ± 8.2
338.19 K	262.93 ± 8.2
343.18 K	265.66 ± 8.2
348.15 K	268.38 ± 9.5
353.18 K	271.11 ± 9.5
358.15 K	273.83 ± 9.5
363.18 K	277.92 ± 9.5
368.17 K	280.64 ± 9.5
373.21 K	283.37 ± 9.5
378.2 K	284.73 ± 9.5
383.17 K	287.45 ± 9.5
388.2 K	290.18 ± 9.5
393.17 K	292.9 ± 9.5
398.2 K	295.63 ± 9.5
403.19 K	299.71 ± 9.5
408.16 K	302.44 ± 9.5
413.19 K	303.8 ± 9.5
418.19 K	306.53 ± 9.5

mass density [kg/m3], [2]
Conditions	283.15 K	298.15 K	313.15 K	328.15 K	343.15 K	358.15 K
20000 kPa	891.3 ± 1	880.2 ± 1	869.3 ± 1	858.2 ± 1	847.7 ± 1.1	837 ± 1.1
25000 kPa	894.2 ± 1	883.3 ± 1	872.6 ± 1.1	861.7 ± 1.1	851.4 ± 1.1	840.9 ± 1.1
30000 kPa	897 ± 1.1	886.3 ± 1.1	875.7 ± 1.1	865.2 ± 1.1	855 ± 1.1	844.8 ± 1.1
35000 kPa	899.9 ± 1.1	889.3 ± 1.1	878.8 ± 1.1	868.7 ± 1.1	858.6 ± 1.1	848.7 ± 1.1
40000 kPa	902.6 ± 1.1	892.2 ± 1.1	882 ± 1.1	872.2 ± 1.1	862.1 ± 1.1	852.6 ± 1.1

C=C1CCC2CC1C2(C)C (stereo not drawn) [β-pinene]
mass density [kg/m3], [3]
Conditions	283.15 K	298.15 K	313.15 K	328.15 K	343.15 K	358.15 K
20000 kPa	891.3 ± 1	880.2 ± 1	869.3 ± 1	858.2 ± 1	847.7 ± 1.1	837 ± 1.1
25000 kPa	894.2 ± 1	883.3 ± 1	872.6 ± 1.1	861.7 ± 1.1	851.4 ± 1.1	840.9 ± 1.1
30000 kPa	897 ± 1.1	886.3 ± 1.1	875.7 ± 1.1	865.2 ± 1.1	855 ± 1.1	844.8 ± 1.1
35000 kPa	899.9 ± 1.1	889.3 ± 1.1	878.8 ± 1.1	868.7 ± 1.1	858.6 ± 1.1	848.7 ± 1.1
40000 kPa	902.6 ± 1.1	892.2 ± 1.1	882 ± 1.1	872.2 ± 1.1	862.1 ± 1.1	852.6 ± 1.1

[4]
Conditions	molar heat capacity at constant pressure [J/K/mol]
313.16 K	249.31 ± 8.2
318.16 K	252.03 ± 8.2
323.16 K	254.76 ± 8.2
328.22 K	257.48 ± 8.2
333.22 K	260.21 ± 8.2
338.19 K	262.93 ± 8.2
343.18 K	265.66 ± 8.2
348.15 K	268.38 ± 9.5
353.18 K	271.11 ± 9.5
358.15 K	273.83 ± 9.5
363.18 K	277.92 ± 9.5
368.17 K	280.64 ± 9.5
373.21 K	283.37 ± 9.5
378.2 K	284.73 ± 9.5
383.17 K	287.45 ± 9.5
388.2 K	290.18 ± 9.5
393.17 K	292.9 ± 9.5
398.2 K	295.63 ± 9.5
403.19 K	299.71 ± 9.5
408.16 K	302.44 ± 9.5
413.19 K	303.8 ± 9.5
418.19 K	306.53 ± 9.5

CC1=CC[C@H]2C[C@@H]1C2(C)C [(S)-2-pinene]
mass density [kg/m3], [3]
Conditions	283.15 K	298.15 K	313.15 K	328.15 K	343.15 K	358.15 K
20000 kPa	880 ± 1.2	868.8 ± 1.2	858 ± 1.2	846.7 ± 1.2	835.9 ± 1.2	825 ± 1.2
25000 kPa	883.2 ± 1.2	872.1 ± 1.2	861.3 ± 1.2	850.4 ± 1.2	839.7 ± 1.2	829.2 ± 1.2
30000 kPa	886.3 ± 1.3	875.3 ± 1.3	864.7 ± 1.3	854 ± 1.3	843.8 ± 1.3	833.3 ± 1.3
35000 kPa	889.4 ± 1.3	878.6 ± 1.3	867.9 ± 1.3	857.5 ± 1.3	847.7 ± 1.3	837.4 ± 1.3
40000 kPa	892.5 ± 1.3	881.9 ± 1.3	871.3 ± 1.3	861.1 ± 1.3	851.4 ± 1.3	841.5 ± 1.3

[4]
Conditions	molar heat capacity at constant pressure [J/K/mol]
313.16 K	250.67 ± 8.2
318.16 K	252.03 ± 8.2
323.16 K	256.12 ± 8.2
328.22 K	257.48 ± 8.2
333.22 K	260.21 ± 8.2
338.19 K	264.29 ± 8.2
343.18 K	267.02 ± 9.5
348.15 K	269.74 ± 9.5
353.18 K	272.47 ± 9.5
358.15 K	275.19 ± 9.5
363.18 K	277.92 ± 9.5
368.17 K	279.28 ± 9.5
373.21 K	282 ± 9.5
378.2 K	284.73 ± 9.5
383.17 K	287.45 ± 9.5
388.2 K	291.54 ± 9.5
393.17 K	292.9 ± 9.5
398.2 K	294.27 ± 9.5
403.19 K	296.99 ± 9.5
408.16 K	299.71 ± 9.5
413.19 K	301.08 ± 9.5
418.19 K	303.8 ± 9.5
